Experimental data from patent US20250197374A1, “WEE1 DEGRADING COMPOUNDS AND USES THEREOF” (BRISTOL-MYERS SQUIBB COMPANY, priority 2023, published 2025).

What was measured:
Format in all cases: cell-based
WEE1 = molecular target: T1, WEE1 (Homo sapiens, UniProt P30291+Q96SW2); assay: WEE1-ePL degradation assay (293T-LentiX, InCELL Hunter luminescence, 4 hr); details: for 293T-LentiX WEE1-ePL Degradation 4 hr YMin (%): lower limit of fit, % of DMSO control signal remaining; for DC50: LentiX-HEK293T cells expressing WEE1-ePL, 4 hr incubation, read-out: 293T-LentiX WEE1-ePL Degradation 4 hr EC50
T1 construct: C-terminal ePL-tagged (DiscoverX, Fremont, CA) full-length WEE1 expression construct; expressed in transfected cells; host or cells: LentiX-HEK293T (Invitrogen), lentivirally transduced; the cells also over-express GSPT1-GN
T1 sequence (P30291 whole entry): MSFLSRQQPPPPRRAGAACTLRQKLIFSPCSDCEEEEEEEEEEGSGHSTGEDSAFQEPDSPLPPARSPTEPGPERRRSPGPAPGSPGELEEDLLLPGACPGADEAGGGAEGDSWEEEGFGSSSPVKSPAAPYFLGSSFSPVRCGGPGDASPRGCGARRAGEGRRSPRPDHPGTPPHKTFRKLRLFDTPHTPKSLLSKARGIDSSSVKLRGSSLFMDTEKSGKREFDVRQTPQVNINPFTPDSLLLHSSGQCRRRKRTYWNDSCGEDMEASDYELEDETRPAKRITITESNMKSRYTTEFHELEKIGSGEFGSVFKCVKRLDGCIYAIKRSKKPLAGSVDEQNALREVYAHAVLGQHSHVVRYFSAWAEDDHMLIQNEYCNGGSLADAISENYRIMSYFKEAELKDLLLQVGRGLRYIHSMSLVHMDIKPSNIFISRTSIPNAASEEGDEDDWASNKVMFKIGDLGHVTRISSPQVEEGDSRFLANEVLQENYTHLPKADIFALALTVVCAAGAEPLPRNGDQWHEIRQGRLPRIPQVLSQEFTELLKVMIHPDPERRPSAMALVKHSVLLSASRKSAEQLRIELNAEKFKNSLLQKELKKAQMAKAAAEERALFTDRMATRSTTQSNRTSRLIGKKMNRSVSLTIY
T1 sequence (Q96SW2 whole entry): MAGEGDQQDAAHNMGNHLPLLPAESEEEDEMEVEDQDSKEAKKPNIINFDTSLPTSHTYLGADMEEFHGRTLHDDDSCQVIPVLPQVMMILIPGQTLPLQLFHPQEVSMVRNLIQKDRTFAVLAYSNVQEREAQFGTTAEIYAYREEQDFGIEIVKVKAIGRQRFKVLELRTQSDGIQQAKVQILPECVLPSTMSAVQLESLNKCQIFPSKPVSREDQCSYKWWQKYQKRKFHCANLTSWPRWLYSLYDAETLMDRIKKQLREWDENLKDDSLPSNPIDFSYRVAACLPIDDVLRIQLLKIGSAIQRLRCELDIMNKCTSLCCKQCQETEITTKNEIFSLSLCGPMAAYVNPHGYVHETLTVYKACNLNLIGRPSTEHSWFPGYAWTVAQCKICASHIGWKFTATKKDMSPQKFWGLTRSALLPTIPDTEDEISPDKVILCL
T1 sequence (Q16531 whole entry partner): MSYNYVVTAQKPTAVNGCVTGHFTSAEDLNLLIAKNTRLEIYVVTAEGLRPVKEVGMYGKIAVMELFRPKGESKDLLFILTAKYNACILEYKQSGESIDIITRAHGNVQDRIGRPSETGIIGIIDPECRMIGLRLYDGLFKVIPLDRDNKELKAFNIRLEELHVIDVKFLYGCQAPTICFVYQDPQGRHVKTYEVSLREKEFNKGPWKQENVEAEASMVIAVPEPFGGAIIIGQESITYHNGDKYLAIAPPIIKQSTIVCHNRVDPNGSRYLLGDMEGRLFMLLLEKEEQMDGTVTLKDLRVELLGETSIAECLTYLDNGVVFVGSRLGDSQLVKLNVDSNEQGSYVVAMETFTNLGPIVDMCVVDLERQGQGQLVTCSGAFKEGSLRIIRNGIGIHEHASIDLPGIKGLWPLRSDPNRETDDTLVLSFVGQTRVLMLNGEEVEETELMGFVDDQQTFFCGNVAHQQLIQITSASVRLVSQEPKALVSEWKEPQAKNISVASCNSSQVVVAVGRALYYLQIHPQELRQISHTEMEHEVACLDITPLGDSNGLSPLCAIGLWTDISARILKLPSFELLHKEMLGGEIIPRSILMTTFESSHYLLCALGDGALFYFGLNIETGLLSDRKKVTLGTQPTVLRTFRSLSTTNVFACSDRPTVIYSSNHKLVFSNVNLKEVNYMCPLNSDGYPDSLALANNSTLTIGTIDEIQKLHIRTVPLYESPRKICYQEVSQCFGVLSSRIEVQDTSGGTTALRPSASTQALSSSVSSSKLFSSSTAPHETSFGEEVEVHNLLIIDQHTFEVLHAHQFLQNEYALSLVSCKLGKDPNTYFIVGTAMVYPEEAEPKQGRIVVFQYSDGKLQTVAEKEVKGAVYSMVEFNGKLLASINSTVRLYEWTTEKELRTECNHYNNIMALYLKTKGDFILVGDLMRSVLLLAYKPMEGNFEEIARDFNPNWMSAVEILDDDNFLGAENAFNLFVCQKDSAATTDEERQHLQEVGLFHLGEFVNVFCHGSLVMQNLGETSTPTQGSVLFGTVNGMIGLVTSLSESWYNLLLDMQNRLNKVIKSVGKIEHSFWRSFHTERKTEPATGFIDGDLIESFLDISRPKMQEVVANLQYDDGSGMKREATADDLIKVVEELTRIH
Outline: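 LentiX-HEK293T cells expressing C-terminally ePL-tagged full-length WEE1 plus non-degradable GSPT1-GN (G575N, N-terminal 158 aa truncated). Treated 4 h at 37 °C with a 10-point, 3-fold series from 1 or 10 µM, then read by InCELL Hunter luminescence. EC50 from four-parameter logistic fit, Ymax set by DMSO control.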

MKN45 cells = assay: MKN45 cell proliferation assay (Cell-Titer-Glo, 120 hr); details: for EC50: Homo sapiens, MKN-45, 120 h, read-out: MKN45 Cell Prolif. 120 hr EC50; for MKN45 Cell Prolif. 120 hr YMin (%): minimal percent of DMSO control observed
Outline: (§1)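 MKN45 (400/well) and MDA-MB-231 (800/well) cells in RPMI with 10% FBS were exposed to 10-point half-log doses from 1 or 10 uM (0.1% DMSO) for 120 h at 37 °C. Viability was read by CellTiter-Glo luminescence. EC50 came from blank-subtracted, %DMSO four-parameter fits, with Ymin-obs as the lowest %DMSO observed.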

MDA-MB-231 cells = assay: MDA-MB-231 cell proliferation assay (Cell-Titer-Glo, 120 hr); details: for EC50: Homo sapiens, MDA-MB-231, 120 h, read-out: MDA-MB 231 Cell Prolif. 120 hr EC50; for MDA-MB 231 Cell Prolif. 120 hr YMin (%): minimal percent of DMSO control observed
Outline: as §1

Compound	293T-LentiX WEE1-ePL Degradation 4 hr YMin (%) (WEE1)	EC50 (MKN45 cells) [nM]	MKN45 Cell Prolif. 120 hr YMin (%) (MKN45 cells)	EC50 (MDA-MB-231 cells) [nM]	MDA-MB 231 Cell Prolif. 120 hr YMin (%) (MDA-MB-231 cells)	DC50 (WEE1) [nM]
COC[C@@H]1CN(Cc2cc3ccc(N4CCN(CC(F)(F)F)CC4)cc3cn2)C[C@H]1Oc1ccc2c(c1)CN([C@H]1CCC(=O)NC1=O)C2=O [Example 39, (3S)-3-(5-{[(3S,4S)-4-(methoxymethyl)-1-({7-[4-(2,2,2-trifluoroethyl)piperazin-1-yl]isoquinolin-3-yl}methyl)pyrrolidin-3-yl]oxy}-1-oxo-2,3-dihydro-1H-isoindol-2-yl)piperidine-2,6-dione]	31.6	1	10.3	25	41.6	
COC[C@@H]1CN(Cc2cc3ccc(C(C)(C)O)cc3cn2)C[C@H]1Oc1ccc2c(c1)CN([C@H]1CCC(=O)NC1=O)C2=O [Example 40, (3S)-3-(5-{[(3S,4S)-1-{[7-(2-hydroxypropan-2-yl)isoquinolin-3-yl]methyl}-4-(methoxymethyl)pyrrolidin-3-yl]oxy}-1-oxo-2,3-dihydro-1H-isoindol-2-yl)piperidine-2,6-dione]	30.9	5	10.2	228	1.8	3
COC[C@@H]1CN(Cc2cc(F)c3nc(C(C)(C)O)ncc3c2)C[C@H]1Oc1ccc2c(c1)CN([C@H]1CCC(=O)NC1=O)C2=O [Example 41, (3S)-3-(5-{[(3S,4S)-1-{[8-fluoro-2-(2-hydroxypropan-2-yl)quinazolin-6-yl]methyl}-4-(methoxymethyl)pyrrolidin-3-yl]oxy}-1-oxo-2,3-dihydro-1H-isoindol-2-yl)piperidine-2,6-dione]	30.3	10	12.5	151	39.1	22
COC[C@@H]1CN(Cc2cc(F)c3nc(COC4CCOCC4)ncc3c2)C[C@H]1Oc1ccc2c(c1)CN([C@H]1CCC(=O)NC1=O)C2=O [Example 42, (3S)-3-(5-{[(3S,4S)-1-({8-fluoro-2-[(oxan-4-yloxy)methyl]quinazolin-6-yl}methyl)-4-(methoxymethyl)pyrrolidin-3-yl]oxy}-1-oxo-2,3-dihydro-1H-isoindol-2-yl)piperidine-2,6-dione]	31.5	9	12.2	122	33.0	8
COC[C@@H]1CN(Cc2cc(F)c3nc(COC4CCN(C)CC4)ncc3c2)C[C@H]1Oc1ccc2c(c1)CN([C@H]1CCC(=O)NC1=O)C2=O [Example 43, (3S)-3-(5-{[(3S,4S)-1-[(8-fluoro-2-{[(1-methylpiperidin-4-yl)oxy]methyl}quinazolin-6-yl)methyl]-4-(methoxymethyl)pyrrolidin-3-yl]oxy}-1-oxo-2,3-dihydro-1H-isoindol-2-yl)piperidine-2,6-dione]	34.3	38	10.0	520	51.3	133
COC[C@@H]1CN(Cc2cc(F)c3nc(N4CCN(CC(F)(F)F)CC4)ccc3c2)C[C@H]1Oc1ccc2c(c1)CN([C@H]1CCC(=O)NC1=O)C2=O [Example 44, (3S)-3-(5-{[(3S,4S)-1-({8-fluoro-2-[4-(2,2,2-trifluoroethyl)piperazin-1-yl]quinolin-6-yl}methyl)-4-(methoxymethyl)pyrrolidin-3-yl]oxy}-1-oxo-2,3-dihydro-1H-isoindol-2-yl)piperidine-2,6-dione]	27.8	1	8.9	14	22.3	1
COC[C@@H]1CN(Cc2cc(F)c3nc(C4CN(C(C)=O)C4)ncc3c2)C[C@H]1Oc1ccc2c(c1)CN([C@H]1CCC(=O)NC1=O)C2=O [Example 45, (3S)-3-(5-{[(3S,4S)-1-{[2-(1-acetylazetidin-3-yl)-8-fluoroquinazolin-6-yl]methyl}-4-(methoxymethyl)pyrrolidin-3-yl]oxy}-1-oxo-2,3-dihydro-1H-isoindol-2-yl)piperidine-2,6-dione]	31.5	35	13.4	278	52.6	53
COC[C@@H]1CN(Cc2cc(F)c3nc(C4CN(CC(F)(F)F)C4)ncc3c2)C[C@H]1Oc1ccc2c(c1)CN([C@H]1CCC(=O)NC1=O)C2=O [Example 46, (3S)-3-(5-{[(3S,4S)-1-({8-fluoro-2-[1-(2,2,2-trifluoroethyl)azetidin-3-yl]quinazolin-6-yl}methyl)-4-(methoxymethyl)pyrrolidin-3-yl]oxy}-1-oxo-2,3-dihydro-1H-isoindol-2-yl)piperidine-2,6-dione]	26.2	2	8.7	18	17.7	4
COC[C@@H]1CN(Cc2cc(F)c3nc(N4C[C@H]5C[C@@H](C4)O5)ccc3c2)C[C@H]1Oc1ccc2c(c1)CN([C@H]1CCC(=O)NC1=O)C2=O [Example 47, (S)-3-(5-(((3S,4S)-1-((2-((1R,5S)-6-oxa-3-azabicyclo[3.1.1]heptan-3-yl)-8-fluoroquinolin-6-yl)methyl)-4-(methoxymethyl)pyrrolidin-3-yl)oxy)-1-oxoisoindolin-2-yl)piperidine-2,6-dione]	28.7	1	9.8	34	30.0	1
COC[C@@H]1CN(Cc2cc3ccc(N4CCOCC4)c(F)c3cn2)C[C@H]1Oc1ccc2c(c1)CN([C@H]1CCC(=O)NC1=O)C2=O [Example 48, (3S)-3-(5-{[(3S,4S)-1-{[8-fluoro-7-(morpholin-4-yl)isoquinolin-3-yl]methyl}-4-(methoxymethyl)pyrrolidin-3-yl]oxy}-1-oxo-2,3-dihydro-1H-isoindol-2-yl)piperidine-2,6-dione]	22.9	1	7.8	4	22.0	
COC[C@@H]1CN(Cc2cc(F)c3nc(C4CC(C)(C)OC(C)(C)C4)ccc3c2)C[C@H]1Oc1ccc2c(c1)CN([C@H]1CCC(=O)NC1=O)C2=O [Example 53, (3S)-3-(5-{[(3S,4S)-1-{[8-fluoro-2-(2,2,6,6-tetramethyloxan-4-yl)quinolin-6-yl]methyl}-4-(methoxymethyl)pyrrolidin-3-yl]oxy}-1-oxo-2,3-dihydro-1H-isoindol-2-yl)piperidine-2,6-dione]	27.9		10.5	8	13.4	
COC[C@@H]1CN(Cc2cc(F)c3nc(C45CCC(O)(CC4)CC5)ccc3c2)C[C@H]1Oc1ccc2c(c1)CN([C@H]1CCC(=O)NC1=O)C2=O [Example 55, (3S)-3-(5-{[(3S,4S)-1-[(8-fluoro-2-{4-hydroxybicyclo[2.2.2]octan-1-yl}quinolin-6-yl)methyl]-4-(methoxymethyl)pyrrolidin-3-yl]oxy}-1-oxo-2,3-dihydro-1H-isoindol-2-yl)piperidine-2,6-dione]	27.9		10.9	16	22.6	
COC[C@@H]1CN(Cc2cc(F)c3nc(C45CC(C(C)(C)O)(C4)C5)ccc3c2)C[C@H]1Oc1ccc2c(c1)CN([C@H]1CCC(=O)NC1=O)C2=O [Example 56, (3S)-3-(5-{[(3S,4S)-1-({8-fluoro-2-[3-(2-hydroxypropan-2-yl)bicyclo[1.1.1]pentan-1-yl]quinolin-6-yl}methyl)-4-(methoxymethyl)pyrrolidin-3-yl]oxy}-1-oxo-2,3-dihydro-1H-isoindol-2-yl)piperidine-2,6-dione]	29.9		10.0	19	25.5	
COC[C@@H]1CN(Cc2cc(F)c3nc(C(=O)N(C)C)ccc3c2)C[C@H]1Oc1ccc2c(c1)CN([C@H]1CCC(=O)NC1=O)C2=O [Example 58, 6-{[(3S,4S)-3-({2-[(3S)-2,6-dioxopiperidin-3-yl]-1-oxo-2,3-dihydro-1H-isoindol-5-yl}oxy)-4-(methoxymethyl)pyrrolidin-1-yl]methyl}-8-fluoro-N,N-dimethylquinoline-2-carboxamide]	31.1	6	11.2	213	28.1	5
